pIC50, pKi: −log10 of the molar value. Calls of active or inactive are those of the source. The calls are words filed in the database; no cut-off is given here.
Experiments:
Rattus norvegicus [1] = test: Effect on striatal DOPA synthesis at 10 mg/kg dose after GBL intraperitoneal dose of 750 mg/kg in rat corpus striatum; type: functional
D(2) dopamine receptor [2] = biological target: T1, D(2) dopamine receptor (Rattus norvegicus, UniProt P61169); test: In vitro inhibition of [3H]spiperone binding to Dopamine D2 receptor in rat striatum.; type: tissue-based
T1 sequence (P61169 whole entry): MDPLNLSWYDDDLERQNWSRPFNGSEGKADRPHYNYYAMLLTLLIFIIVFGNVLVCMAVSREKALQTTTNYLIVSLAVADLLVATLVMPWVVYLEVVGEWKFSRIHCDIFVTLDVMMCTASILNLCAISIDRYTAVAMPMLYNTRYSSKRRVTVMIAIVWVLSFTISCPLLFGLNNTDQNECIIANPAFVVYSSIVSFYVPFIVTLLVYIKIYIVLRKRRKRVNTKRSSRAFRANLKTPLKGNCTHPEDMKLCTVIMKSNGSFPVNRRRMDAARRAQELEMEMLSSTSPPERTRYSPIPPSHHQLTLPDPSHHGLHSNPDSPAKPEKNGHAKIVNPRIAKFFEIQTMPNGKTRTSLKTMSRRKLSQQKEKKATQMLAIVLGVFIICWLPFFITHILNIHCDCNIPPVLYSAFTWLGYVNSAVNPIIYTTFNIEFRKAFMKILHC

Mus musculus [3] = test: Tested for inhibition of mouse exploratory locomotory activity (LMA); value ranges from […]-[…] mg/Kg; type: functional
Rattus norvegicus [4] = test: Tested for inhibition of rat exploratory locomotory activity (LMA); value ranges from 3.2-10.4 mg/Kg; type: functional
Mus musculus [5] = organism: Mus musculus; test: Tested for inhibition of mouse exploratory locomotory activity (LMA); type: functional
Mus musculus [6] = test: Tested for inhibition of mouse explanatory locomotory activity; value ranges from […]-[…] mg/Kg; type: functional
Mus musculus [7] = test: Tested for inhibition of mouse exploratory locomotory activity (LMA); value ranges from 0.8-1.6 mg/Kg; type: functional
Mus musculus [8] = test: Tested for the inhibition of locomotor activity in mice intraperitoneally; value ranges from 0.14-0.9 mg/Kg; type: functional; conditions: ip
Rattus norvegicus [9] = test: Compound was tested for the decrease of DA neuron firing rate in rats at 0.25 mg/Kg ip dose; type: functional; set-up: scale not given: the % may be the effect or the level left
Rattus norvegicus [10] = test: Tested for reversal of DOPA accumulation in rat striatum after administration of compound at 10 mg/Kg dose for 60 min and GBL 750 mg/Kg ip; value ranges from 0.14-0.59; type: functional
Rattus norvegicus [11] = organism: Rattus norvegicus; test: animal or person; conditions: ip
[12] = tested on: Saimiri sciureus (squirrel monkey); test: Tested for inhibition of conditioned avoidance in squirrel monkeys; stim indicates stimulation (increase in response rate) at 0.156 and 0.312 mgkg sc
Rattus norvegicus [13] = test: Tested for inhibition of rat exploratory locomotory activity (LMA); value ranges from […]-[…] mg/Kg; value ranges from […]-[…] mg/Kg; type: functional
Mus musculus [14] = organism: Mus musculus; test: animal or person; conditions: ip
Rattus norvegicus [15] = test: Tested for the inhibition of locomotor activity in rats orally; value ranges from 0.21-0.3 mg/Kg; conditions: po
[16] = Tested for inhibition of conditioned avoidance in squirrel monkeys; value ranges from 0.4-0.6 mg/Kg; conditions: Saimiri
Mus musculus [17] = test: Tested for inhibition of mouse exploratory locomotory activity (LMA); value ranges from 9.2-16 mg/Kg; type: functional
Rattus norvegicus [18] = test: Tested for inhibition of rat exploratory locomotory activity (LMA); value ranges from 12.5-24.7 mg/Kg; type: functional
D(1A) dopamine receptor = D(1A) dopamine receptor (Rattus norvegicus, UniProt P18901); test: Tested for binding affinity towards rat striatal dopamine receptor D1 using [3H]-SCH- 23390 as radioligand
D(1A) dopamine receptor, sequence (P18901 whole entry): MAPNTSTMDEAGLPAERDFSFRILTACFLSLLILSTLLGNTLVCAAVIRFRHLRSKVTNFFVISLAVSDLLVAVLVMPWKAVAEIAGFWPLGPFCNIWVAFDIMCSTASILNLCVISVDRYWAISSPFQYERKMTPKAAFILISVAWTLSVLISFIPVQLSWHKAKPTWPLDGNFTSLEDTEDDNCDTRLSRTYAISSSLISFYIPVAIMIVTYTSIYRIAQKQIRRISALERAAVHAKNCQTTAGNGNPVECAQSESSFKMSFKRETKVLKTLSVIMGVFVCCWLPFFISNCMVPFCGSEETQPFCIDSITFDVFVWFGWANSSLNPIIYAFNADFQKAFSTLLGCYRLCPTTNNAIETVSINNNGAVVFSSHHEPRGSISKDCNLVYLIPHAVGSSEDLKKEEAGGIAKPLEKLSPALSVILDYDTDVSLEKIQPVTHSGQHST

D(4) dopamine receptor = biological target: T2, D(4) dopamine receptor (Homo sapiens, UniProt P21917); test: Tested for binding affinity towards human Dopamine receptor D4.2 using [3H]spiperone as radioligand
T2 sequence (P21917 whole entry): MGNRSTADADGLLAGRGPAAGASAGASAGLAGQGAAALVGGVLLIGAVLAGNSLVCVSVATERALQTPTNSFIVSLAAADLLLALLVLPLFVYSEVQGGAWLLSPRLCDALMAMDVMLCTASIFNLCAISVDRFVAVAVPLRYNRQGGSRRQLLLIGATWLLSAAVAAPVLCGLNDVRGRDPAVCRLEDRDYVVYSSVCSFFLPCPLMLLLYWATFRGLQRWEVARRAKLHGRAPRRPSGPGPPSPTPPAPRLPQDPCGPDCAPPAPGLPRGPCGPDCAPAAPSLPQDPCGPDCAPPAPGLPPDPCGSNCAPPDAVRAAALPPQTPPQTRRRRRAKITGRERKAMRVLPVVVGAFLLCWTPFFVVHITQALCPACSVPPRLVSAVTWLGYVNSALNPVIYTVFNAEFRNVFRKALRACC

D(2) dopamine receptor [19] = biological target: T1, D(2) dopamine receptor; test: Tested for binding affinity towards rat striatal D2 receptor using [3H]NPA as radioligand
Mus musculus [20] = test: Tested for the inhibition of locomotor activity in mice intraperitoneally; value ranges from 0.9-1.8 mg/Kg; type: functional; conditions: ip
Rattus norvegicus [21] = test: Compound was tested for the decrease of DA neuron firing rate in rats at 2.5 mg/Kg ip dose; type: functional
Rattus norvegicus [22] = test: Tested for inhibition of rat exploratory locomotory activity (LMA); value ranges from […]-[…] mg/Kg; type: functional
Rattus norvegicus [23] = test: Tested for the inhibition of locomotor activity in rats intraperitoneally; value ranges from […]-[…] mg/Kg; type: functional; conditions: ip
Rattus norvegicus [24] = test: Tested for reversal of DOPA accumulation in rat mesolimbic after administration of compound at 10 mg/Kg dose for 60 min and GBL 750 mg/Kg ip; value ranges from 0.19-0.47; type: functional
Rattus norvegicus [25] = test: Tested for reversal of DOPA accumulation in rat striatum after administration of compound at 10 mg/Kg dose for 60 min and GBL 750 mg/Kg ip; value ranges from 2.05-4.46; type: functional
[26] = Tested for inhibition of conditioned avoidance in squirrel monkeys; value ranges from 0.4-0.7 mg/Kg; type: functional
D(2) dopamine receptor [27] = biological target: D(2) dopamine receptor (Homo sapiens, UniProt P14416)
D(2) dopamine receptor (Homo sapiens, UniProt P14416), sequence (P14416 whole entry): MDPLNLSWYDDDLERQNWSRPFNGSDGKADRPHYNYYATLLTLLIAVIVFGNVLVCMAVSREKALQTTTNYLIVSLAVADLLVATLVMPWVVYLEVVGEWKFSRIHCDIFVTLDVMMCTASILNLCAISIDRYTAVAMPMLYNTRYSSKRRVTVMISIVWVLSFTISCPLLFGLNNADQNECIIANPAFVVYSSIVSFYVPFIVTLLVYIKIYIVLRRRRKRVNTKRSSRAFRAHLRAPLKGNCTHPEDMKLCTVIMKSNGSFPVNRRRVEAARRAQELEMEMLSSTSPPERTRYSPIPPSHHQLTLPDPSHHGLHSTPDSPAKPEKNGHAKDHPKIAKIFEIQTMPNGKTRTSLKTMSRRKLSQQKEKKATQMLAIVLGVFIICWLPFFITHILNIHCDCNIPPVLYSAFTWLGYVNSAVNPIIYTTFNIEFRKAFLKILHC
Description: Tested for binding affinity towards human D2L receptor using [3H]spiperone as radioligand

D(3) dopamine receptor = D(3) dopamine receptor (Homo sapiens, UniProt P35462)
D(3) dopamine receptor, sequence (P35462 whole entry): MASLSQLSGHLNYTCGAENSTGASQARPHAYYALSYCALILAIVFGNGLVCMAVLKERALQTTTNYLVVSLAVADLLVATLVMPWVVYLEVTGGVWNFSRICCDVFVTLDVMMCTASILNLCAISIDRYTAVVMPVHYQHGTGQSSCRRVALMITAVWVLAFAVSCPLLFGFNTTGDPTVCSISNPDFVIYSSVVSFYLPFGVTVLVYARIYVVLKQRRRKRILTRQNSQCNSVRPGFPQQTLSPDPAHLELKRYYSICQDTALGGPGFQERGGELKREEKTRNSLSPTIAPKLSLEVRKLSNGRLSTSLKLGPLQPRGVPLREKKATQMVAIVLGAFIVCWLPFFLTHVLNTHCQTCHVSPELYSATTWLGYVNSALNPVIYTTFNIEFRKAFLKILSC
Description: Tested for binding affinity towards human D3 receptor using [3H]spiperone as radioligand

D(2) dopamine receptor [28] = biological target: T1, D(2) dopamine receptor
Description: Tested for binding affinity towards rat striatal D2 receptor using [3H]spiperone as radioligand

Rattus norvegicus [29] = organism: Rattus norvegicus; test: Tested for inhibition of rat exploratory locomotory activity (LMA); type: functional

In the case of `C1=C(c2ccccc2)CCN(CCC2CCC=C(c3ccccc3)C2)C1` (configuration not stated), the Effect (Rattus norvegicus [1]) was -49%.

Work on `C1=C(c2ccccc2)CC(CN2CCN(c3ccccn3)CC2)CC1` (configuration not stated) yielded a pIC50 (D(2) dopamine receptor [2]) of 6.85, an ED50 (Mus musculus [3]) of 0.8 mg/kg and an Effect (Rattus norvegicus [1]) of -61%.

Work on `Cc1ccc(C2=CCC[C@@H](CN3CC=C(c4ccccc4)CC3)C2)cc1` yielded a pIC50 (D(2) dopamine receptor [2]) of 6.48, an ED50 (Rattus norvegicus [4]) of 5.8 mg/kg and an Effect (Rattus norvegicus [1]) of -42%.

For `C1=C(c2ccccc2)CCN(CC2CCCC=C2c2ccccc2)C1` (configuration not stated), the pIC50 (D(2) dopamine receptor [2]) was 5.40 and the ED50 (Mus musculus [5]) was > 30 mg/kg.

With `COc1ccc(C2=CCC[C@@H](CN3CC=C(c4ccccc4)CC3)C2)cc1` the pIC50 (D(2) dopamine receptor [2]) was 7.00, the ED50 (Mus musculus [6]) was 5.6 mg/kg and the Effect (Rattus norvegicus [1]) was -47%.

With `C1=C(c2ccccc2)CC(CN2CCN(c3ccccc3)CC2)CC1` (configuration not stated) the pIC50 (D(2) dopamine receptor [2]) was 6.37 and the Effect (Rattus norvegicus [1]) was -7.5%.

For `C1=C(c2ccccc2)CCN(CC2CCC=C(c3ccccc3)C2)C1` (configuration not stated), the pIC50 (D(2) dopamine receptor [2]) was 6.95, the ED50 (Mus musculus [7]) was 1.1 mg/kg and the Effect (Rattus norvegicus [1]) was -86%.

`CN1CCc2cccc3c2[C@H]1Cc1ccc(O)c(O)c1-3` [APOMORPHINE] showed an ED50 (Mus musculus [8]) of 0.36 mg/kg, an Activity (Rattus norvegicus [9]) of 100% and an ED50 (Rattus norvegicus [10]) of 0.28 mg/kg. The ED50 (Rattus norvegicus [11]) was 0.03 mg/kg and the ED50 [12] was “inactive”.

`C1=C(c2ccccc2)CCCC1CN1CC=C(c2ccccc2)CC1` (configuration not stated) showed a pIC50 (D(2) dopamine receptor [2]) of 6.38 and an Effect (Rattus norvegicus [1]) of -34%.

With `C1=C(c2ccccc2)CC(CN2CCN(c3ncccn3)CC2)CC1` (configuration not stated) the pIC50 (D(2) dopamine receptor [2]) was 6.45.

For `C1=C(c2ccccc2)CCN(C[C@H]2CCC=C(c3ccccc3)C2)C1`, the pIC50 (D(2) dopamine receptor [2]) was 6.95, the ED50 (Rattus norvegicus [13]) was 3.8 mg/kg and the Effect (Rattus norvegicus [1]) was 50%.

`C1=C(c2ccccc2)CCN(C2CCC=C(c3ccccc3)C2)C1` (configuration not stated) gave a pIC50 (D(2) dopamine receptor [2]) of 5.04 and an ED50 (Mus musculus [5]) of ~30 mg/kg.

`O=C(CCCN1CCC(O)(c2ccc(Cl)cc2)CC1)c1ccc(F)cc1` [HALOPERIDOL] gave an ED50 (Mus musculus [14]) of 0.3 mg/kg, an ED50 (Rattus norvegicus [15]) of 0.25 mg/kg and an ED50 [16] of 0.5 mg/kg.

Molecule `FC(F)(F)c1ccc(C2=CCC[C@@H](CN3CC=C(c4ccccc4)CC3)C2)cc1` has a pIC50 (D(2) dopamine receptor [2]) of 5.59.

For `C1=C(c2ccccc2)CCC(CN2CC=C(c3ccccc3)CC2)C1` (configuration not stated), the pIC50 (D(2) dopamine receptor [2]) was 6.00, the ED50 (Mus musculus [17]) was 12.1 mg/kg and the Effect (Rattus norvegicus [1]) was -32%.

With `C1=C(c2ccccc2)CC(CN2CC=C(c3cccs3)CC2)CC1` (configuration not stated) the pIC50 (D(2) dopamine receptor [2]) was 6.77.

`Fc1ccc(C2=CCC[C@@H](CN3CC=C(c4ccccc4)CC3)C2)cc1` showed a pIC50 (D(2) dopamine receptor [2]) of 7.12, an ED50 (Rattus norvegicus [18]) of 17.5 mg/kg and an Effect (Rattus norvegicus [1]) of -74%.

For `C1=C(c2ccccc2)CCN(C[C@@H]2CCC=C(c3ccccc3)C2)C1` [CI-1007], the pKi (D(1A) dopamine receptor) was < 5.00, the pKi (D(4) dopamine receptor) was 7.04 and the pIC50 (D(2) dopamine receptor [2]) was 7.28. The pKi (D(2) dopamine receptor [19]) was 8.48, the ED50 (Mus musculus [20]) was 1.3 mg/kg and the Activity (Rattus norvegicus [21]) was 99. For the same molecule, the ED50 (Rattus norvegicus [22]) was 2.9 mg/kg, the ED50 (Rattus norvegicus [23]) was 2.9 mg/kg and the Effect (Rattus norvegicus [1]) was -66%. It also gave an Effect (Rattus norvegicus [24]) of 0.3%, an Effect (Rattus norvegicus [25]) of 3% and an ED50 [26] of 0.6 mg/kg. The pKi (D(2) dopamine receptor [27]) was 7.59, the pKi (D(3) dopamine receptor) was 7.78 and the pKi (D(2) dopamine receptor [28]) was 7.28.

`Clc1ccc(C2=CCC[C@@H](CN3CC=C(c4ccccc4)CC3)C2)cc1` showed an ED50 (Rattus norvegicus [29]) of 19.9 mg/kg.
